Laboratory results published in US10633350B2, “Diphenyl derivatives and uses thereof” (NOVARTIS AG, priority 2017, dated 2020).
Where two headings read alike, the source gives them in different places.

How the values were obtained:
Akt = Akt activation assay (Phospho-AKT (Ser473) antibody staining) in U2OS GFP-FoxO3a H212R reporter cells; type: cell-based; conditions: serum starved overnight, 30 minutes compound treatment, total cellular intensity of Phospho-Akt (Ser473) antibody staining, AC50 = concentration that results in 50% activation or inhibition
Method: Phosphorylation of Akt on S473 and FoxO3a nuclear to cytoplasmic translocation were used as readouts of PI3K/Akt/mTOR pathway activation downstream of growth factor signaling.
Reporter cell line. U2OS GFP-FoxO3a H212R reporter cell line was established by transducing U2OS cells with the retroviral plasmid pLEGFP-C1 containing FoxO3a H212R transgene and selecting for G418 resistant clones.
Reporter assay. U2OS GFP-FoxO3a H212R cells were plated in 384-well plates at 4000 cells per well in 30 microliters of McCoy's 5A medium containing 10% FBS. On day 1 the cells were washed with serum free medium and serum starved overnight. On day 2 the cells were treated with different doses of the compounds for 30 minutes, fixed with 4% Paraformaldehyde for 1 hour and stained with Phospho-AKT (Ser473) antibody (Cell Signaling Technology, catalog #4060) overnight at 4° C. After nuclei staining with Hoechst 33342 (Life Technologies, catalog # H3570) the plates were imaged with InCell 2000 (GE Healthcare Bio-Sciences). FoxO3a inhibition activity is calculated as the ratio of nuclear to cytosolic GFP intensity in percent. Akt activation is measured as the total cellular intensity of Phospho-Akt antibody staining in percent. DMSO control is set as 0% activity.

FoxO3a = FoxO3a inhibition assay (GFP-FoxO3a nuclear to cytoplasmic translocation) in U2OS GFP-FoxO3a H212R reporter cells; type: cell-based; conditions: serum starved overnight, 30 minutes compound treatment, ratio of nuclear to cytosolic GFP intensity, AC50 = concentration that results in 50% activation or inhibition, read-out: FoxO AC50
In short: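 Serum-starved (overnight) cells treated with compounds at various doses for 30 min, then fixed in 4% paraformaldehyde and stained overnight at 4 °C for pAkt S473 with Hoechst nuclear counterstain; high-content imaging. FoxO3a readout: nuclear/cytosolic GFP ratio (%); Akt readout: total cellular pAkt intensity (%); DMSO = 0% activity.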

Compound | AC50 (Akt; Homo sapiens, 0.5 h) [nM] | AC50 (FoxO3a; Homo sapiens, 0.5 h) [nM] | AC50 (Akt) [nM] | AC50 (FoxO3a) [nM]
Cc1cc(C(N)=O)nn1-c1ccc(Cc2ccc(-c3ccc4c(c3)CCNC4)cc2)cc1 [Example 3-14, 5-methyl-1-(4-(4-(1,2,3,4-tetrahydroisoquinolin-6-yl)benzyl)phenyl)-1H-pyrazole-3-carboxamide] | 161 | 53 |  | 
Cc1cc(C(N)=O)nn1-c1ccc(Cc2ccc(-c3ccc(CN4CCC4)cc3)cc2)cc1 [Example 16-8] | 300 | 117 |  | 
Cc1nc(C(N)=O)nn1-c1ccc(Cc2ccc(-c3ccc(CN4CCC[C@H]4CO)cc3)cc2)cc1 [Example 39-38] | 119 | 48 |  | 
Cc1cc(C(N)=O)nn1-c1ccc(Cc2ccc(C3CCN(C)C3)cc2)cc1 (single isomer, unassigned) [Example 5-2, 5-methyl-1-(4-(4-(1-methylpyrrolidin-3-yl)benzyl)phenyl)-1H-pyrazole-3-carboxamide] |  |  | 2500 | 792
Cc1nc(C(N)=O)nn1-c1ccc(Cc2ccc(-c3ccc(CN4CCC(C)(C)CC4)cc3)cc2)cc1 [Example 38-10] | 397 | 175 |  | 
Cc1cc(C(N)=O)nn1-c1ccc(Cc2ccc(-c3ccc(CC4CCCN4CO)cc3)cc2)cc1 (stereo not shown) [Example 16-7] | 24 | 9 |  | 
Cc1cc(C(N)=O)nn1-c1ccc(Cc2ccc(-c3ccc(CN4CCN(C)CC4)cc3)cc2)cc1 [Example 3-12, 5-methyl-1-(4-((4′-((4-methylpiperazin-1-yl)methyl)-[1,1′-biphenyl]-4-yl)methyl)phenyl)-1H-pyrazole-3-carboxamide] | 122 | 36 |  | 
Cc1nc(C(N)=O)nn1-c1ccc(Cc2ccc(-c3ccc(S(=O)(=O)NCC(C)(C)O)cc3)cc2)cc1 [Example 50, 1-(4-((4′-(N-(2-hydroxy-2-methylpropyl)sulfamoyl)-[1,1′-biphenyl]-4-yl)methyl)phenyl)-5-methyl-1H-1,2,4-triazole-3-carboxamide] | 117 | 36 |  | 
Cc1cc(C(N)=O)nn1-c1ccc(Cc2ccc(-c3cncc(CN(C)C)c3)cc2)cc1 [Example 5-6, 1-(4-(4-(5-((dimethylamino)methyl)pyridin-3-yl)benzyl)phenyl)-5-methyl-1H-pyrazole-3-carboxamide] | 1040 | 312 |  | 
Cc1cc(C(N)=O)nn1-c1ccc(Cc2ccc(-c3ccc([C@@H]4CCCN4C)cc3)cc2)cc1 [Example 5-8, (S)-5-methyl-1-(4-((4′-(1-methylpyrrolidin-2-yl)-[1,1′-biphenyl]-4-yl)methyl)phenyl)-1H-pyrazole-3-carboxamide] | 145 | 76 |  | 
Cc1nc(C(N)=O)nn1-c1ccc(C(C)(C)c2ccc(-c3ccc(C#N)nc3)cc2)cc1 [Example 13-10] | 1180 | 489 |  | 
Cc1cc(C(N)=O)nn1-c1ccc(Cc2ccc(-c3ccnc(CN(C)C)c3)cc2)cc1 [Example 5-4, 1-(4-(4-(2-((dimethylamino)methyl)pyridin-4-yl)benzyl)phenyl)-5-methyl-1H-pyrazole-3-carboxamide] | 789 | 160 |  | 
Cc1nc(C(N)=O)nn1-c1ccc(C(C)(C)c2ccc(-c3ccc(CN4CCOCC4)cc3)cc2)cc1 [Example 13-12] | 261 | 64 |  | 
Cc1cc(C(N)=O)nn1-c1ccc(C(C)(C)c2ccc(C3=CCC(=O)CC3)cc2)cc1 [Example 7, 5-methyl-1-(4-(2-(4′-oxo-2′,3′,4′,5′-tetrahydro-[1,1′-biphenyl]-4-yl)propan-2-yl)phenyl)-1H-pyrazole-3-carboxamide] | 276 | 58 |  | 
Cc1cc(C(N)=O)nn1-c1ccc(Cc2ccc(-c3ccc(CN(C)C)nc3)cc2)cc1 [Example 5-3, 1-(4-(4-(6-((dimethylamino)methyl)pyridin-3-yl)benzyl)phenyl)-5-methyl-1H-pyrazole-3-carboxamide] | 425 | 136 |  | 
Cc1nc(C(N)=O)nn1-c1ccc(Cc2ccc(-c3ccc(C(C)(C)O)cn3)cc2)cc1 [Example 21, 1-(4-(4-(5-(2-hydroxypropan-2-yl)pyridin-2-yl)benzyl)phenyl)-5-methyl-1H-1,2,4-triazole-3-carboxamide] | 723 | 155 |  | 
Cc1cc(C(N)=O)nn1-c1ccc(Cc2ccc(-c3ccc(C(=O)N4CCNCC4)nc3)cc2)cc1 [Example 26, 5-methyl-1-(4-(4-(6-(piperazine-1-carbonyl)pyridin-3-yl)benzyl)phenyl)-1H-pyrazole-3-carboxamide] | 480 | 75 |  | 
Cc1cc(C(N)=O)nn1-c1ccc(C(C)(C)c2ccc(C3=CCC(O)CC3)cc2)cc1 (stereo not shown) [Example 9, 1-(4-(2-(4′-hydroxy-2′,3′,4′,5′-tetrahydro-[1,1′-biphenyl]-4-yl)propan-2-yl)phenyl)-5-methyl-1H-pyrazole-3-carboxamide] | 532 | 253 |  | 
Cc1nc(C(N)=O)nn1-c1ccc(C(C)(C)c2ccc(-c3ccc4ccncc4c3)cc2)cc1 [Example 13-5] | 446 | 147 |  | 
Cc1nc(C(N)=O)nn1-c1ccc(C(C)(C)c2ccc(-c3ccc4nccnc4c3)cc2)cc1 [Example 13-4] | 1240 | 429 |  | 
Cc1nc(C(N)=O)nn1-c1ccc(C(C)(C)c2ccc(-c3ccc4scnc4c3)cc2)cc1 [Example 13-7] | 504 | 159 |  | 
Cc1nc(C(N)=O)nn1-c1ccc(Cc2ccc(-c3ccc(CN4CCCC(F)(F)C4)cc3)cc2)cc1 [Example 38-9] | 11 | 13 |  | 
Cc1nc(C(N)=O)nn1-c1ccc(Cc2ccc(-c3ccc(C(=O)N4CCN[C@@H](C)C4)cc3)cc2)cc1 [Example 29, (S)-5-methyl-1-(4-((4′-(3-methylpiperazine-1-carbonyl)-[1,1′-biphenyl]-4-yl)methyl)phenyl)-1H-1,2,4-triazole-3-carboxamide] | 486 | 138 |  | 
Cc1nc(C(N)=O)nn1-c1ccc(Cc2ccc(-c3ccc(C(=O)N4CCN(C)CC4)cc3)cc2)cc1 [Example 15-3] | 188 | 60 |  | 
Cc1nc(C(N)=O)nn1-c1ccc(Cc2ccc(-c3ccc(C(C)(C)O)nc3)cc2)cc1 [Example 46, 1-(4-(4-(6-(2-hydroxypropan-2-yl)pyridin-3-yl)benzyl)phenyl)-5-methyl-1H-1,2,4-triazole-3-carboxamide] | 1160 | 234 |  | 
Cc1cc(C(N)=O)nn1-c1ccc(Cc2ccc(-c3ccc(C(=O)NC4CNC4)cc3)cc2)cc1 [Example 30, 1-(4-((4′-(azetidin-3-ylcarbamoyl)-[1,1′-biphenyl]-4-yl)methyl)phenyl)-5-methyl-1H-pyrazole-3-carboxamide] | 802 | 237 |  | 
Cc1nc(C(N)=O)nn1-c1ccc(Cc2ccc(N3CCC(C(C)(C)O)CC3)cc2)cc1 [Example 49, 1-(4-(4-(4-(2-hydroxypropan-2-yl)piperidin-1-yl)benzyl)phenyl)-5-methyl-1H-1,2,4-triazole-3-carboxamide] | 840 | 273 |  | 
Cc1cc(C(N)=O)nn1-c1ccc(Cc2ccc(-c3ccc(CNC4COC4)cc3)cc2)cc1 [Example 16-4] | 120 | 41 |  | 
Cc1cc(C(N)=O)nn1-c1ccc(C(C)(C)c2ccc(-c3ccccn3)cc2)cc1 [Example 10, 5-methyl-1-(4-(2-(4-(pyridin-2-yl)phenyl)propan-2-yl)phenyl)-1H-pyrazole-3-carboxamide] | 733 | 470 |  | 
